Experimental data published in patent US7524851B2 (Robert Bosch Gesellschaft fur Medizinische Forschung (RBMF), priority 2003, dated 2009).
Values belong to the compound of their own block, whether it stands above or below them.

Tests used:
Rac1 = Rac1 activation assay (GTP-bound Rac1, PAK pull-down); assay type: cell-based, human; conditions: primary T cells, 3 days
Method: (§1) Cell lysates were incubated with 10 μg/ml PAK-1 agarose (Rac assays) or 10 μg/mg Raf RBD agarose (Ras assay) for 60 minutes (Rac assays) or 30 minutes (Ras assays) at 4° C. Agarose beads were collected by centrifugation followed by denaturation, boiling of the samples, and SDS-PAGE analysis.

[1] = system: primary CD4+ T lymphocytes; assay: Annexin V/propidium iodide FACS apoptosis of stimulated primary blood CD4+ T lymphocytes; assay type: cell-based, human; conditions: anti-CD3, anti-CD28, rIL-2; 4-5 days; at least comparable to 6-MP
Excerpt: Isolation of primary CD4^+ T lymphocytes and lamina propria cells: Human peripheral blood mononuclear cells (PBMCs) from healthy volunteers (25-42 years of age) and patients with Crohn's disease (31-65 years of age) were isolated using Ficoll-Hypaque gradients. PBMCs were further purified using CD4 monoclonal antibodies attached to immunomagnetic beads according to the manufacturer's protocol, followed by treatment with Detachabead (Dynal; Oslo, Norway). In some cases, CD4^+ T cells were further separated by negative selection techniques using CD45RO or CD45RA monoclonal antibodies (PharMingen; Heidelberg, Germany) and immunomagnetic beads (Dynal). […] Lamina propria mononuclear cells (LPMCs) from patients with IBD were isolated from gut specimens using a short-term (5-minute) digestion protocol with collagenase V, hyaluronidase (Sigma-Aldrich; St. Louis, Mo., USA), and DNase (Roche; Mannheim, Germany), as recently described in detail in Holtmann et al., Eur. J. Immunol. 32:3142-3151 (2002). Briefly, specimens were washed in calcium- and magnesium-free HBSS (HBSS-CMF), cut into 0.5-cm pieces, and incubated twice in HBSS containing EDTA (0.37 mg/ml) and DTT (0.145 mg/ml) at 37° C. for 15 minutes, followed by subsequent digestion for 5 minutes with collagenase V 400 (1 mg/ml), deoxyribonuclease (0.1 mg/ml DNase), and hyaloronidase (0.1 mg/ml) in a shaking incubator at 37° C. The digested tissue was washed twice in RPMI medium containing 10% FCS and centrifuged. The tissue was finally mechanically homogenized (DAKO homogenizer; Hamburg, Germany) for 4 minutes, and cells were filtered through a sterile 40-μm cell strainer (Falcon; San Diego, Calif., USA).
Such CD28 costimulation is known to prevent apoptosis of primary T cells during T cell receptor (TCR) stimulation through activation of bcl-x, and NF-κB (Noel et al., J. Immunol. 157:636-647 (1996); Radvanyi et al., J. Immunol. 156:1788-1798 (1996); Khoshnan et al., J. Immunol. 165:1743-1754 (2000)). […] In addition, recombinant IL-2 (R&D Systems; Wiesbaden, Germany) was used at a final concentration of 40 U/ml in all experiments. Lamina propria T lymphocytes were stimulated with antibodies to CD2 (4 μg/ml; Immunotech; Marseille, France) and CD28 (1 μg/ml). […] To block CD95L-mediated (FasL-mediated) apoptosis, the NOK-1 antibody (4 μg/ml, PharMingen) was used whose Fab fragments bind to human CD95L (FasL) (Jodo et al., J. Immunol. 165:5487-5494 (2000)). Recombinant human FasL (Alexis Biochemicals; Heidelberg, Germany) was used as a positive control for the NOK-1 antibody (10 μg/ml).
For FACS analysis, apoptotic cells were detected by staining with annexin V and propidium iodide using the Annexin V FITC Apoptosis Detection Kit I (PharMingen) (Atreya et al., Nat. Med. 6:583-588 (2000)). In brief, T cells were washed twice in PBS, and the pellet was resuspended in annexin V binding buffer (PharMingen) at a concentration of 10^6 cells per milliliter. Annexin V FITC and propidium iodide were added (5 ill of each per 10^5 cells). Samples were gently mixed and incubated for 15 minutes at room temperature in the dark before FACS analysis. To verify the results obtained with the annexin V/propidium iodide staining, analysis of T cells displaying DNA fragmentation was also determined by the Nicoletti technique, as described in (Nicoletti et al., J. Immunol. Methods 139:271-279 (1991)). 10^6 T cells were fixed in 70% ethanol, washed once in HBSS, resuspended in 1 ml of HBSS and 1 ml of phosphate citric acid buffer (0.2 mol/l Na2PO4 and 0.004 mol/l citric acid [pH 7.8]), and incubated at room temperature for 5 minutes. After centrifugation, cells were resuspended in 1 ml of HBSS containing 20 μg/ml propidium iodide and 10 U DNase-free RNase A and incubated at room temperature for 30 minutes. Finally, cells were analyzed on a FACScan flow cytometer. Because of the fragmentation of DNA, apoptotic cells appear as hypodiploid in the DNA histogram.

Ras = Ras activation assay (GTP-bound Ras, Raf RBD pull-down); assay type: cell-based, human; conditions: primary T cells
Method: as §1

[2] = system: primary CD4+ T lymphocytes; assay: Mitochondrial membrane potential (JC-1, FACS); conditions: positive control, 50 μM for 18 hours
[3] = Interconversion of TGDP and TGTP in spiked blank RBC during sample work-up; assay type: in vitro ADME, human
[4] = Stability of thioguanosine phosphates in patient blood samples; assay type: in vitro ADME, human
Method: Stability of the thioguanosine phosphates in blood samples was examined by storing blood samples from patients for up to 5 days at ambient temperature. RBC were isolated after the specified storage time and frozen at −80° C. until analysis.

[5] = Interconversion of TGDP and TGTP in spiked blank RBC during sample work-up; assay type: in vitro ADME, human; remark: listed apart in the source
Method: Calibration samples and controls were prepared as described in Rabel et al., supra, with minor modifications. Known amounts of 6-thioguanosine phosphates were added to a mixture of EDTA and 10 μl of DTT to give a final volume of 150 μl. Finally, 100 μl of blank RBC were added and the mixture thoroughly homogenized by vortex mixing. Sample preparation was performed as described above. Calibration curves covered the range of 10 to 50 pmol for TGMP, 10 to 100 pmol for TGDP, and 20 to 400 pmol for TGTP per sample referred to 100 μl of packed blank RBC. Standard curves were obtained by linear regression using peak areas versus concentrations. Because of the partial conversion of TGDP to TGTP and vice versa, both peak areas were summed up. In addition, combinations of 5 to 20 percent of TGDP per sum of TGDP and TGTP were prepared.
The percentage of conversion of TGDP to TGTP and of TGTP to TGDP was assessed using three sets of TGDP and TGTP calibrators prepared with different RBC.

[6] = Stability of thioguanosine phosphates in extracted samples; assay type: physicochemical
Excerpt: Stability of thioguanosine phosphates in extracted samples was investigated by storage of extracted samples from 12 patients before oxidation and after oxidation for 14 days and comparing the results with the same samples analyzed immediately after oxidation.

Recombinant Rac1 = Recombinant Rac1 (Homo sapiens, UniProt P63000); assay: Competition of [3H]GTP binding to recombinant Rac1; conditions: 0-500 μM, PAK pull-down, scintillation counting
Method: (§2) Rac and Ras activation assays: The levels of Rac1- and Ras-bound GTP were determined by immunoblot techniques (Upstate Biotech; London, United Kindom). […] Cell lysates were incubated with 10 μg/ml PAK-1 agarose (Rac assays) or 10 μg/mg Raf RBD agarose (Ras assay) for 60 minutes (Rac assays) or 30 minutes (Ras assays) at 4° C. Agarose beads were collected by centrifugation followed by denaturation, boiling of the samples, and SDS-PAGE analysis. Proteins were transferred to nitrocellulose membranes and incubated with 1 μg/ml murine anti-human Rac1 or anti-human Ras (clone Ras10) antibodies overnight at 4° C., followed by detection with goat anti-mouse HRP-conjugated IgG (1:1000 dilution) and the ECL detection system. To analyze the capacity of TGTP to bind to Rac1 or Ras, chemically synthesized TGTP (obtained from Jena Bioscience, Jena, Germany) was used. Recombinant Rac1 or Ras was incubated with radiolabeled GTP ([^3H]GTP, Amersham) and increasing amounts of TGTP (0-500 μM) followed by Rac1 and Ras pull-down through PAK and Raf RGD and analysis of [^3H]GTP-bound Rac1 or Ras by scintillation counting.

Recombinant Ras = assay: Competition of [3H]GTP binding to recombinant Ras; conditions: 0-500 μM, Raf RGD pull-down, scintillation counting
Method: as §2

[7] = Stability during storage of RBC at −80° C.; assay type: in vitro ADME, human
Method: Stability during storage of RBC at −80° C. was investigated in samples from 18 patients. RBC which were analyzed within one week after isolation were compared with RBC stored for up to 14 weeks.

[8] = system: primary CD4+ T lymphocytes; assay: Blocking of caspase-8 and caspase-9 activity in 6-MP-induced apoptosis; assay type: cell-based, human; conditions: 10 μM inhibitor; FACS after 5 days
Method: Blocking of caspase-8 and caspase-9 activity: Primary CD4^+ T lymphocytes from peripheral blood were isolated as described above and stimulated with antibodies to CD3 and CD28 in the presence or absence of indicated amounts of N-acetyl-Leu-Glu-His-Asp-aldehyde (Biomol), a reversible inhibitor of caspase-9, or Ac-Ile-Glu-Thr-Asp-aldehyde (Bachem; Heidelberg, Germany), an inhibitor of caspase-8. Apoptosis was determined by FACS analysis after 5 days of cell culture.

[9] = more than 10 different blank RBC
[10] = 5 days of storage of blood at ambient temperature

Compound: Nc1nc2nc[nH]c2c(=S)[nH]1 [6-TG, 6-thioguanine]
CD28 costimulation induced Rac1 activation (GTP-bound Rac1) (Rac1): strongly suppressed
apoptosis of primary blood CD4+ T lymphocytes [1]: marked apoptosis
activation of Ras (GTP-bound Ras) (Ras): fail to modulate

Compound: N#CC(C#N)=NNc1ccc(OC(F)(F)F)cc1 [FCCP, carbonylcyanide-4-(trifluoromethoxy)-phenylhydrazone]
ΔΨm in primary CD4+ T cells [2]: marked reduction of ΔΨm

Area % of calibrator added, area calibrator × 100/(area TGTP + area TGDP), mean (n = 6) ([3]; 0.9% NaCl): 100.0%
conversion of TGDP ([3]; 0.9% NaCl): did not show any conversion
conversion of TGDP to TGTP [3, 9]: 6-15%
change of amount of TGDP ([4]; up to 5 days of storage of blood at ambient temperature): did not change significantly
Area % of calibrator added, area calibrator × 100/(area TGTP + area TGDP), mean (n = 6) ([5]; spiked RBC 1): 91.6%
Area % of calibrator added, area calibrator × 100/(area TGTP + area TGDP), mean (n = 6) ([5]; spiked RBC 2): 92.6%
Area % of calibrator added, area calibrator × 100/(area TGTP + area TGDP), mean (n = 6) ([5]; spiked RBC 3): 92.8%
conversion of TGDP to TGTP ([5]; spiked samples from three healthy volunteers): 7-8%
Compound: Nc1nc2c(ncn2[C@@H]2O[C@H](COP(=O)(O)OP(=O)(O)O)[C@@H](O)[C@H]2O)c(=S)[nH]1 [TGDP, 6-thioguanosine diphosphate]

amount of TGMP as share of total thioguanosine phosphates [4, 10]: more than 70%
Compound: Nc1nc2c(ncn2[C@@H]2O[C@H](COP(=O)(O)O)[C@@H](O)[C@H]2O)c(=S)[nH]1 [TGMP, 6-thioguanosine monophosphate]

reduction of the proportion of TGTP ([6]; non-oxidized extracts kept 14 days at ambient temperature before oxidation, average (range from −5 to −12%)): 7%
decrease of TGTP proportion ([6]; oxidized samples stored for 14 days (range from −6 to −13%)): approximately 8%
Area % of calibrator added, area calibrator × 100/(area TGTP + area TGDP), mean (n = 6) ([3]; 0.9% NaCl): 95.6%
conversion of TGTP to TGDP [3, 9]: 6-20%
TGDP found after sample work-up ([3]; saline samples spiked with TGTP): about 5%
binding to recombinant Rac1 / suppression of [3H]GTP-bound Rac1 (Recombinant Rac1; listed as 6-Thio-GTP): concentration-dependent suppression
competition with GTP for recombinant Ras / [3H]GTP-bound Ras (Recombinant Ras): did not significantly compete
competition with GTP for recombinant Ras / [3H]GTP-bound Ras (Recombinant Ras; listed as 6-Thio-GTP): little effect
decrease of the proportion of TGTP ([7]; RBC from 18 patients at −80° C. for 8 to 14 weeks, thawed twice): 7.6±7.6%
effect of repeated thawing and freezing of RBC samples ([7]; dephosphorylation of TGTP to TGDP): progression in dephosphorylation
TGTP recovered [4, 10]: about 5%
change of TGTP on storage of blood samples ([4]; one day at ambient temperature): marked decrease
Area % of calibrator added, area calibrator × 100/(area TGTP + area TGDP), mean (n = 6) ([5]; spiked RBC 1): 90.3%
Area % of calibrator added, area calibrator × 100/(area TGTP + area TGDP), mean (n = 6) ([5]; spiked RBC 2): 93.9%
Area % of calibrator added, area calibrator × 100/(area TGTP + area TGDP), mean (n = 6) ([5]; spiked RBC 3): 82.2%
conversion of TGTP to TGDP ([5]; subject 1): 9.7%
conversion of TGTP to TGDP ([5]; subject 2): 6.1%
conversion of TGTP to TGDP ([5]; third sample): ~18%
Compound: Nc1nc2c(ncn2[C@@H]2O[C@H](COP(=O)(O)OP(=O)(O)OP(=O)(O)O)[C@@H](O)[C@H]2O)c(=S)[nH]1 [TGTP, 6-thioguanosine triphosphate]
binding to recombinant Rac1 / suppression of [3H]GTP-bound Rac1 (Recombinant Rac1): able to bind to recombinant Rac1 under in vitro conditions (although with lower affinity than GTP)

Compound: Ac-IETD-aldehyde [acetyl-IETD-CHO]
effect on 6-MP-induced apoptosis of primary T lymphocytes [8]: lesser effects

Compound: N-acetyl-Leu-Glu-His-Asp-aldehyde (Ac-LEHD-aldehyde; SMILES CC(=O)N[C@@H](CC(C)C)C(=O)N[C@@H](CCC(=O)O)C(=O)N[C@@H](Cc1c[nH]cn1)C(=O)N[C@H](C=O)CC(=O)O) [acetyl-LEHD-CHO]
effect on 6-MP-induced apoptosis of primary T lymphocytes [8]: suppressed 6-MP-induced apoptosis
